Columns and labels:
[1] = tested on: ErbB2; assay: Western blot analysis of ErbB2 signaling in ErbB2+ breast cancer cells; assay type: cell-based, human
Method: (§1) Whole cell extracts were prepared by scraping cells off petri dishes, washing cell pellets 2× in phosphate buffered saline (PBS), and then re-suspending pellets in two-packed-cell volumes of RIPA buffer (150 mM NaCl, 50 mM Tris-HCl, pH 7.5, 0.25% (w/v) deoxycholate, 1% NP-40, 5 mM sodium orthovanadate, 2 mM sodium fluoride, and a protease inhibitor cocktail). Protein concentrations were determined using a modification of the Bradford method (Bio-Rad Labs, Hercules, Calif.). For Western blot analysis, equal amounts of proteins (25 to 50 μg) were resolved by either 7.5% or 4-15% gradient SDS polyacrylamide gel electrophoresis under reducing conditions as previously described. Proteins were transferred to nitrocellulose membranes and probed with primary antibodies specific for proteins of interest. After extensive washing, membranes were incubated with a secondary IRDye 800 conjugated anti-rabbit or mouse IgG, or Alexa Fluor 680 anti-rabbit IgG and proteins were visualized using the LI-COR Odyssey Infrared Imaging System (LI-COR, Inc., Lincoln, Nebr.).

[2] = tested on: ErbB2+ breast cancer cell lines (BT474; SKBR3); assay: Cell growth and viability assay (WST-1); assay type: cell-based, human
Method: (§2) UV irradiation was carried out in 6 or 96 well plate format in a UV Stratalinker 1800 (Statagene, LA Jolla, Calif.) at the UV doses indicated in the figures. Cell growth and viability assays were performed in a 96-well plate format in a final volume of 100 μl/well using the cell proliferation reagent WST-1 from Roche Diagnostics (Mannheim, Germany), as previously described. Details of the apoptosis assay have been previously described. Briefly, cells were treated in 12-well plates with 8MOP, UV irradiation, or lapatinib at the treatment conditions indicated in the Figure legends. Cells were harvested with trypsin-EDTA, and 5000 cells in final volume of 50 μl were sampled in 96-well microplates. Cells were directly stained with annexin V-PE and nexin 7-AAD in 1× Nexin Buffer in a 200 μl final reaction volume. After incubating at room temperature for 20 min, the reaction samples were analyzed in the Guava PCA-96-system (Guava Technology Inc. Hayward, Calif.).

[3] = tested on: p85^ErbB2; assay: Western blot of phospho-p85ErbB2 in stably transfected T47D cells; assay type: cell-based, human; conditions: p85 expressing T47D cells; 5 μM lapatinib or 5 μM 8MOP 4 hr, then UV irradiation
Method: as §1
(§3) The c-terminal fragment (p85^ErbB2) was generated based on ErbB2 open reading frames and sub-cloned into the pcDNA 3.1 (+) as previously described. HER2 negative T47D breast cancer cells were transfected with the p85 expressing vector using the Lipofectamine™ 2000 Reagent from Invitrogen (Carlsbad, Calif.) as previously described. […]

[4] = tested on: rBT474 and rSKBR3 cells; assay: Cell growth and viability assay in lapatinib resistant cells; assay type: cell-based, human; conditions: PUVA; cells maintained in 1 μM lapatinib; dose-dependent
Source text: ErbB2+(BT474; SKBR3) and ErbB2 negative (MCF-7; T47D) human breast cancer cell lines, and the human foreskin fibroblast (HFF) cell line were obtained from the American Type Culture Collection (Manassas, Va.). Lapatinib resistant breast cancer cells (rBT474; rSKBR3) were generated and maintained in culture as previously described. Cells were maintained in RPMI-1640 supplemented with 10% fetal bovine serum and L-glutamine from GIBCO (Grand Island, N.Y.) growing in a humidified atmosphere of 5% CO2 at 37° C. IRDye 800 conjugated affinity purified anti-rabbit IgG and anti-mouse IgG were from Rockland (Gilbertsville, Pa.). Alexa Fluor 680 goat anti-rabbit IgG were purchased from Molecular Probes (Eugene, Oreg.). Anti-PARP (Poly (ADP-ribose) Polymerase) monoclonal antibody was from BD PharMingen (San Jose, Calif.). 8-Methoxypsoralen (8MOP) and the 4G10 anti-phosphotyrosine (p-tyr) antibody were purchased from Sigma-Aldrich (St. Louis, Mo.). Monoclonal antibodies to c-ErbB2 and EGFR were purchased from Neo Markers (Union City, Calif.). […]
UV irradiation was carried out in 6 or 96 well plate format in a UV Stratalinker 1800 (Statagene, LA Jolla, Calif.) at the UV doses indicated in the figures. […] After incubating at room temperature for 20 min, the reaction samples were analyzed in the Guava PCA-96-system (Guava Technology Inc. Hayward, Calif.).

[5] = tested on: ErbB2+ breast cancer cells (BT474; SKBR3); assay: Apoptosis assay (annexin V-PE / 7-AAD); assay type: cell-based, human
Method: as §2

[6] = tested on: EGFR, ErbB3, Akt, PARP in rBT474 and rSKBR3; assay: Western blot analysis in lapatinib resistant cells; assay type: cell-based, human
Method: as §1

[7] = tested on: human foreskin fibroblast cell line (HFF); assay: Cell growth and viability assay (WST-1); assay type: cell-based; conditions: PUVA, 2.5 and 5 μM 8MOP; compared with ErbB2+ lines
Method: as §2

[8] = tested on: MCF7 cells; assay: Cell growth and viability assay (WST-1); assay type: cell-based, human; conditions: PUVA, 2.5 and 5 μM 8MOP; compared with ErbB2+ lines
Method: as §2

[9] = tested on: T47D cells; assay: Growth and apoptosis in T47D and p85ErbB2 transfected T47D cells; assay type: cell-based, human
Method: as §2, §3

Structure (SMILES): Cc1c2occc2cc2c1oc(=O)c1cnccc12 [7-methylpyridopsoralen]
- phosphorylated and total ErbB2 protein expression ([1]; upon photo-activation (UVA irradiation)): inhibition
- growth and viability of ErbB2+ breast cancer cells ([2]; upon photo-activation (UVA irradiation), 72 hr, BT474 and SKBR3): significantly inhibited

Structure (SMILES): CS(=O)(=O)CCNCc1ccc(-c2ccc3ncnc(Nc4ccc(OCc5cccc(F)c5)c(Cl)c4)c3c2)o1 [lapatinib]
- p85ErbB2 phosphorylation [3]: not inhibited

Structure (SMILES): COc1c2occc2cc2ccc(=O)oc12 [8MOP, 8-Methoxypsoralen]
- tumor cell growth and viability [4]: significantly reduced
- apoptosis ([5]; PUVA: 8MOP + UVA irradiation (2J), 72 hr): induction of apoptosis
- PARP cleavage product ([6]; PUVA-treated lapatinib resistant tumor cells): increased
- expression of phosphorylated EGFR (Y992), ErbB3 (Y1197) and Akt (T308) ([6]; PUVA-treated rBT474 and rSKBR3): reduction
- total EGFR and ErbB3 protein expression ([6]; PUVA-treated rBT474 and rSKBR3): markedly reduced
- p85ErbB2 phosphorylation [3]: markedly inhibited
- growth and viability of HFF cells [7]: relatively less effect
- ErbB2 signaling ([1]; 8MOP alone, no UV irradiation): relatively little effect
- phosphorylated forms of Akt and Erk1/2 ([1]; PUVA (8MOP + UVA)): inhibited
- steady-state protein levels of phosphorylated ErbB2 ([1]; PUVA (8MOP + UVA), dose-dependent): reduced
- total ErbB2 protein levels ([1]; higher doses of PUVA therapy): reduced
- growth and viability of MCF7 cells [8]: relatively less effect
- cell viability ([2]; 8MOP alone, no UV irradiation): relatively little effect
- growth and viability of ErbB2+ breast cancer cell lines ([2]; PUVA: 8MOP 4 hr pre-treatment, UVA irradiation (2J), 72 hr, dose-dependent): significantly inhibited
- antitumor effect (growth) ([9]; T47D cells transfected with empty vector alone): antitumor effect
- tumor cell apoptosis ([9]; p85 expressing T47D cells): triggering tumor cell apoptosis

Structure (SMILES): CCOc1cc2ncc(C#N)c(Nc3ccc(OCc4ccccn4)c(Cl)c3)c2cc1NC(=O)/C=C/CN(C)C [neratinib]
- apoptosis in ErbB2+ breast cancer cells ([5]; neratinib at sub-lethal doses combined with PUVA): significantly increased
- total ErbB2 and ErbB3 protein expression ([1]; neratinib in combination with UVA irradiation alone, more pronounced in SKBR3): further loss
- p-Akt (S473) expression ([1]; neratinib treatment alone): loss
- total ErbB2 and ErbB3 protein levels ([1]; neratinib treatment alone): marked reduction
- cell viability ([2]; combination of 8-MOP, UVA irradiation and neratinib, each at sub-lethal doses): significantly enhanced inhibition

From patent US9439897B2, “Use of psoralen derivatives and combination therapy for treatment of cell proliferation disorders” (IMMUNOLIGHT, LLC, priority 2014, dated 2016)
